# Measurements from the supplement of paper PMC11424490.
# Key:
# [1] = test system: NCI-H2122; assay: combination cScore with adagrasib (Bliss gap around IC50) (%PoC); higher = stronger additive effect
# Outline: (§1)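 Scores represent the average Bliss-independence gap, expected minus measured viability, in a field surrounding both monotherapy IC50s, with the top concentrations used when no IC50 was reached. Cells (NCI-H2122, NCI-H358, SW837) were seeded at 500 or 800 per well in 384-well plates, dosed in matrices at 24 h and grown for 72 h, with SW837 grown for 144 h. Viability was measured by CellTiter-Glo, normalised to vehicle wells and fitted with four-parameter curves.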
# [2] = test system: SW837; assay: as above
# Outline: as §1
Compound,combination cScore with adagrasib [1],combination cScore with adagrasib [2]
CO[C@H]1CC[C@H](n2c([C@@H]3CCCC(=O)N3c3ccc(F)c(F)c3)nc3cc(-c4c(C)noc4C)ccc32)CC1 [CCS1477] + C=C(F)C(=O)N1CCN(c2nc(OC[C@@H]3CCCN3C)nc3c2CCN(c2cccc4cccc(Cl)c24)C3)C[C@@H]1CC#N [adagrasib],-1.66,7.35
CC(C)c1cc(-c2n[nH]c(=O)n2-c2ccc3c(ccn3C)c2)c(O)cc1O [Ganetespib] + C=C(F)C(=O)N1CCN(c2nc(OC[C@@H]3CCCN3C)nc3c2CCN(c2cccc4cccc(Cl)c24)C3)C[C@@H]1CC#N [adagrasib],-3.01,4.14
NC(=O)c1cnc(N[C@@H]2CCCC[C@@H]2N)nc1Nc1cccc(-n2nccn2)c1 + C=C(F)C(=O)N1CCN(c2nc(OC[C@@H]3CCCN3C)nc3c2CCN(c2cccc4cccc(Cl)c24)C3)C[C@@H]1CC#N [adagrasib],11.8,3.74
CC(=O)Nc1cccc(-n2c(=O)n(C3CC3)c(=O)c3c(Nc4ccc(I)cc4F)n(C)c(=O)c(C)c32)c1 [Trametinib] + C=C(F)C(=O)N1CCN(c2nc(OC[C@@H]3CCCN3C)nc3c2CCN(c2cccc4cccc(Cl)c24)C3)C[C@@H]1CC#N [adagrasib],6.74,13.6
O=C(Cc1ccccc1)Nc1nnc(CCSCCc2nnc(NC(=O)Cc3ccccc3)s2)s1 [BPTES] + C=C(F)C(=O)N1CCN(c2nc(OC[C@@H]3CCCN3C)nc3c2CCN(c2cccc4cccc(Cl)c24)C3)C[C@@H]1CC#N [adagrasib],8.57,7.09
CNC(=O)c1ccc(N2C(=S)N(c3ccc(C#N)c(C(F)(F)F)c3)C(=O)C2(C)C)cc1F [Enzalutamide] + C=C(F)C(=O)N1CCN(c2nc(OC[C@@H]3CCCN3C)nc3c2CCN(c2cccc4cccc(Cl)c24)C3)C[C@@H]1CC#N [adagrasib],4.58,7.72
Cc1ncc(NC(=O)c2cccc(C(F)(F)F)c2)cc1-c1cnc(OC2CCOCC2)c(N2CCOCC2)c1 [RAF-709] + C=C(F)C(=O)N1CCN(c2nc(OC[C@@H]3CCCN3C)nc3c2CCN(c2cccc4cccc(Cl)c24)C3)C[C@@H]1CC#N [adagrasib],7.22,4.87
O=C(/C=C\n1cnc(-c2cc(C(F)(F)F)cc(C(F)(F)F)c2)n1)NNc1cnccn1 [KPT-330] + C=C(F)C(=O)N1CCN(c2nc(OC[C@@H]3CCCN3C)nc3c2CCN(c2cccc4cccc(Cl)c24)C3)C[C@@H]1CC#N [adagrasib],8.01,3.48
CC1=C(/C=C/C(C)=C/C=C/C(C)=C/C(=O)O)C(C)(C)CCC1 [Tretinoin] + C=C(F)C(=O)N1CCN(c2nc(OC[C@@H]3CCCN3C)nc3c2CCN(c2cccc4cccc(Cl)c24)C3)C[C@@H]1CC#N [adagrasib],-2.19,2.87
Cc1ccc(Nc2nccc(N(C)c3ccc4c(C)n(C)nc4c3)n2)cc1S(N)(=O)=O [Pazopanib] + C=C(F)C(=O)N1CCN(c2nc(OC[C@@H]3CCCN3C)nc3c2CCN(c2cccc4cccc(Cl)c24)C3)C[C@@H]1CC#N [adagrasib],-6.25,-7.8
Nc1nc(Cl)nc2c1ncn2[C@@H]1O[C@H](CO)[C@@H](O)[C@@H]1F [Clofarabine] + C=C(F)C(=O)N1CCN(c2nc(OC[C@@H]3CCCN3C)nc3c2CCN(c2cccc4cccc(Cl)c24)C3)C[C@@H]1CC#N [adagrasib],-3.89,1.46
NC(=O)Nc1cc(-c2cccc(F)c2)sc1C(=O)N[C@H]1CCCNC1 [AZD-7762] + C=C(F)C(=O)N1CCN(c2nc(OC[C@@H]3CCCN3C)nc3c2CCN(c2cccc4cccc(Cl)c24)C3)C[C@@H]1CC#N [adagrasib],-0.23,-2.72
COc1ccccc1-c1cc(Nc2cccc(CS(N)(=O)=O)c2)ncn1 [LDC-067] + C=C(F)C(=O)N1CCN(c2nc(OC[C@@H]3CCCN3C)nc3c2CCN(c2cccc4cccc(Cl)c24)C3)C[C@@H]1CC#N [adagrasib],5.11,3.49
Cc1[nH]c(/C=C2\C(=O)Nc3ccc(S(=O)(=O)Cc4c(Cl)cccc4Cl)cc32)c(C)c1C(=O)N1CCC[C@@H]1CN1CCCC1 + C=C(F)C(=O)N1CCN(c2nc(OC[C@@H]3CCCN3C)nc3c2CCN(c2cccc4cccc(Cl)c24)C3)C[C@@H]1CC#N [adagrasib],6.94,-0.48
CN[C@H]1CN(c2ccc3c(=O)c(C(=O)O)cn(-c4nccs4)c3n2)C[C@@H]1OC [Vosaroxin] + C=C(F)C(=O)N1CCN(c2nc(OC[C@@H]3CCCN3C)nc3c2CCN(c2cccc4cccc(Cl)c24)C3)C[C@@H]1CC#N [adagrasib],5.97,4.99
N.N.[Cl][Pt][Cl] [Cisplatin] + C=C(F)C(=O)N1CCN(c2nc(OC[C@@H]3CCCN3C)nc3c2CCN(c2cccc4cccc(Cl)c24)C3)C[C@@H]1CC#N [adagrasib],-1.07,-1.26
COc1cc(OC)c(/C=C/S(=O)(=O)Cc2ccc(OC)c(NCC(=O)O)c2)c(OC)c1 [Rigosertib] + C=C(F)C(=O)N1CCN(c2nc(OC[C@@H]3CCCN3C)nc3c2CCN(c2cccc4cccc(Cl)c24)C3)C[C@@H]1CC#N [adagrasib],1.67,7.78
COc1ncc(-c2nc3c(n2C(C)C)[C@H](c2ccc(Cl)cc2)N(c2cc(Cl)cn(C)c2=O)C3=O)c(OC)n1 [HDM-201] + C=C(F)C(=O)N1CCN(c2nc(OC[C@@H]3CCCN3C)nc3c2CCN(c2cccc4cccc(Cl)c24)C3)C[C@@H]1CC#N [adagrasib],1.48,3.06
CCCCCOC(=O)Nc1nc(=O)n([C@@H]2O[C@H](C)[C@@H](O)[C@H]2O)cc1F [Capecitabin] + C=C(F)C(=O)N1CCN(c2nc(OC[C@@H]3CCCN3C)nc3c2CCN(c2cccc4cccc(Cl)c24)C3)C[C@@H]1CC#N [adagrasib],-6.31,2.14
CCN1CCN(c2ccc(Nc3cc(N(C)C(=O)Nc4c(Cl)c(OC)cc(OC)c4Cl)ncn3)cc2)CC1 [BGJ398] + C=C(F)C(=O)N1CCN(c2nc(OC[C@@H]3CCCN3C)nc3c2CCN(c2cccc4cccc(Cl)c24)C3)C[C@@H]1CC#N [adagrasib],-3.17,3.09
Nc1cccc2c1CN(C1CCC(=O)NC1=O)C2=O (stereo not drawn) [Lenalidomide] + C=C(F)C(=O)N1CCN(c2nc(OC[C@@H]3CCCN3C)nc3c2CCN(c2cccc4cccc(Cl)c24)C3)C[C@@H]1CC#N [adagrasib],-12.8,-3.14
CO[C@H]1C[C@@H]2CC[C@@H](C)[C@@](O)(O2)C(=O)C(=O)N2CCCC[C@H]2C(=O)O[C@H]([C@H](C)C[C@@H]2CC[C@@H](OCCO)[C@H](OC)C2)CC(=O)[C@H](C)/C=C(\C)[C@@H](O)[C@@H](OC)C(=O)[C@H](C)C[C@H](C)/C=C/C=C/C=C/1C [Everolimus] + C=C(F)C(=O)N1CCN(c2nc(OC[C@@H]3CCCN3C)nc3c2CCN(c2cccc4cccc(Cl)c24)C3)C[C@@H]1CC#N [adagrasib],-6.03,1.15
CCN(CC)CCNC(=O)c1c(C)[nH]c(/C=C2\C(=O)Nc3ccc(F)cc32)c1C [Sunitinib] + C=C(F)C(=O)N1CCN(c2nc(OC[C@@H]3CCCN3C)nc3c2CCN(c2cccc4cccc(Cl)c24)C3)C[C@@H]1CC#N [adagrasib],1.03,4.56
CN1CC[C@H](c2c(O)cc(O)c3c(=O)cc(-c4ccccc4Cl)oc23)[C@H](O)C1 [Flavopiridol] + C=C(F)C(=O)N1CCN(c2nc(OC[C@@H]3CCCN3C)nc3c2CCN(c2cccc4cccc(Cl)c24)C3)C[C@@H]1CC#N [adagrasib],-0.29,2.43
CCOC(=O)CCNc1cc(N2CCc3ccccc3CC2)nc(-c2ccccn2)n1 [GSK-J4] + C=C(F)C(=O)N1CCN(c2nc(OC[C@@H]3CCCN3C)nc3c2CCN(c2cccc4cccc(Cl)c24)C3)C[C@@H]1CC#N [adagrasib],17.9,0.593
CN1CCN(c2ccc(-c3cccc(CN4CCOCC4)c3)cc2NC(=O)c2c[nH]c(=O)cc2C(F)(F)F)CC1 [OICR-9429] + C=C(F)C(=O)N1CCN(c2nc(OC[C@@H]3CCCN3C)nc3c2CCN(c2cccc4cccc(Cl)c24)C3)C[C@@H]1CC#N [adagrasib],-2.61,8.92
Cc1cn(CCN2CCN(c3ccccc3-c3cc(C#N)cc(C(=O)NCCCN4CCCC4)c3)CC2)c2ccccc12 [LLY-507] + C=C(F)C(=O)N1CCN(c2nc(OC[C@@H]3CCCN3C)nc3c2CCN(c2cccc4cccc(Cl)c24)C3)C[C@@H]1CC#N [adagrasib],12.6,20.3
N#CC[C@H](C1CCCC1)n1cc(-c2ncnc3[nH]ccc23)cn1 [Ruxolitinib] + C=C(F)C(=O)N1CCN(c2nc(OC[C@@H]3CCCN3C)nc3c2CCN(c2cccc4cccc(Cl)c24)C3)C[C@@H]1CC#N [adagrasib],-2.1,0.75
CC(C)(C)c1ccc(S(=O)(=O)NCc2ccc(C(=O)Nc3cccnc3)cc2)cc1 [STF-31] + C=C(F)C(=O)N1CCN(c2nc(OC[C@@H]3CCCN3C)nc3c2CCN(c2cccc4cccc(Cl)c24)C3)C[C@@H]1CC#N [adagrasib],-2.08,10.7
